15 molecules from PMC8531348, “Design, synthesis, biological evaluation, and molecular modeling studies of pyrazole-benzofuran hybrids as new α-glucosidase inhibitor” (Scientific Reports, 2021) can be followed below.

By melting point is commonly meant the temperature of the solid-liquid transition. The term IC50 denotes the concentration that inhibits the measured activity by half. As usually defined, the Ki is the equilibrium dissociation constant of an inhibitor or competing ligand from its target.

The target of data set [1] is T1, α-glucosidase enzyme (from Saccharomyces cerevisiae, EC3.2.1.20) (Saccharomyces cerevisiae, UniProt P53341).
T1 construct: purchased Sigma Chemical Co. (St. Louis, USA)
Nature of the data set: biochemical. The settings on record: for fold more potent than the standard acarbose: ratio of IC50 versus acarbose. Type of data set: biochemical. As for the experimental part:
The α-glucosidase enzyme (from Saccharomyces cerevisiae, EC3.2.1.20) was used to evaluate the α-glucosidase inhibitory activity. […] Therefore, α-glucosidase from yeast is extensively used for the preliminary screening of α-glucosidase inhibitors[47],[48]. […] Stock solutions of the test compounds and acarbose were prepared in DMSO and eventually diluted with phosphate buffer saline to attain the desired concentration. […] The percentage of enzyme inhibition for each entry was calculated using the following formula:
% Inhibition = [(Abs control—Abs sample)/Abs control] × 100.

Data set [2] is described as follows: Cytotoxicity against normal 3T3 cell line by MTT assay. Type of data set: cell-based. The settings on record: mouse, 3T3 cells (normal cell line); MTT assay, normal 3T3 cell line. As to the method: (§1) The results of cytotoxic activity were expressed as the IC50 (µM) and outlined in Table 2.
(§2) The cytotoxicity of the compounds 8e, 8l, 8f and 8n was determined using the 3-(4,5 Dimethylthiazol-2-yl)-2,5-diphenyltetrazolium bromide (MTT) assay according to previously described methods.
(Tetrazolium assays rely on reduction of a dye to a coloured formazan, in cell work by metabolically active cells.)

The subject of the next data set is 3T3 cell line. The description is as above. Type of data set: cell-based. The settings on record: at 150 µM concentration, 3T3, MTT. As to the method: as §1, §2
The target in a further data set is T2, α-glucosidase (Saccharomyces cerevisiae, UniProt P53341).
T2 construct: purchased Sigma Chemical Co. (St. Louis, USA)
Briefly: Kinetic study of α-glucosidase inhibition (Lineweaver–Burk plots). It is filed as biochemical. As to the method:
In different concentrations of test compound (0, 10, 25, and 40 µM) and with the incremental concentration (2–10 mM) of substrate, the rate of the enzyme activity was calculated. The type of inhibition and experimental inhibition constant (Ki) value were determined by employing Lineweaver–Burk plots and secondary re-plot of these plots, respectively. […] This pattern indicates a competitive type of inhibition.
The kinetics of enzyme inhibition was performed according to the reaction conditions in 2.5 by preparing a series of test solutions in which the concentration of the substrate (PNPG) was varied (2–10 mM) in the absence and presence of compound 8e at different concentrations (0, 10, 25, and 40 µM). A Lineweaver–Burk plot was generated to identify the type of inhibition and the Michaelis–Menten constant (Km) value was determined from the plot between reciprocal of the substrate concentration (1/[S]) and reciprocal of enzyme rate (1/V) over various inhibitor concentrations. The experimental inhibitor constant (Ki) value was constructed by secondary plots of the inhibitor concentration [I] versus Km.

Several values for one entry are separate records, joined by “and”; a condition that tells them apart may be missing. Equal values may be shown once. Read-outs that look alike come from different tables or passages of the source.

T1 sequence (P53341 whole entry): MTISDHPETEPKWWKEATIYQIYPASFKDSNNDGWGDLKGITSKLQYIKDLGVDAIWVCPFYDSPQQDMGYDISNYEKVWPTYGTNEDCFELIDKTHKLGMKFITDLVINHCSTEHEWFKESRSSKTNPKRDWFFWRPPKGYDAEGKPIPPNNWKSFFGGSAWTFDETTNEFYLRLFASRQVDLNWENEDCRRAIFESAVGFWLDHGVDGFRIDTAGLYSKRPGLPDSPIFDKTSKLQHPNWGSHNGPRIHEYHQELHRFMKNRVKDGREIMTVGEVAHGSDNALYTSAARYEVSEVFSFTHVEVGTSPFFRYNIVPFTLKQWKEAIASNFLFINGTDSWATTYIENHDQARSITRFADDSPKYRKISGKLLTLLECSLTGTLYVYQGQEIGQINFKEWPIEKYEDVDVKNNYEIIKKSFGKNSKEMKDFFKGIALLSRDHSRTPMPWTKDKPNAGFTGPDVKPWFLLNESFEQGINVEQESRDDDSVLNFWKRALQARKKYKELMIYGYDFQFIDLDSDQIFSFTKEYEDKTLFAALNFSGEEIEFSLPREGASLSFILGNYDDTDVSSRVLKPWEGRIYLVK
T2 sequence (P53341 whole entry): as above

`Cc1ccc(-n2cc(C=NNC(=O)c3cc4ccccc4o3)c(-c3ccc(Cl)cc3)n2)cc1` [8o, N'-((3-(4-Chlorophenyl)-1-p-tolyl-1H-pyrazol-4-yl)methylene)benzofuran-2-carbohydrazide]: the melting point fell in the range of 248 to 249 °C. Moreover, the half-maximal inhibitory concentration (IC50) in data set [1] worked out at 155 ± 1.6 µM.
`O=C(NN=Cc1cn(-c2ccccc2)nc1-c1ccc(Br)cc1)c1cc2ccccc2o1` [8f, N'-((3-(4-Bromophenyl)-1-phenyl-1H-pyrazol-4-yl)methylene)benzofuran-2-carbohydrazide] came in with a melting point of 243 to 245 °C. Also, in data set [2], the IC50 is > 150 µM. Besides, the “cytotoxicity against normal cell line” value with 3T3 cell line is reported as “noncytotoxic”. Besides, in data set [1], 79.7 ± 0.5 µM corresponded to half-maximal inhibition (IC50) and the “fold more potent than the standard acarbose” value is recorded as “nine-fold”.
Regarding `O=C(NN=Cc1cn(-c2ccccc2)nc1-c1ccc(Cl)cc1)c1cc2ccccc2o1` [8g, N'-((3-(4-Chlorophenyl)-1-phenyl-1H-pyrazol-4-yl)methylene)benzofuran-2-carbohydrazide], the melting point was 241 to 243 °C. Further, the half-maximal inhibitory concentration (IC50) in data set [1] came out at 125.3 ± 1 µM.
`Cc1ccc(-n2cc(C=NNC(=O)c3cc4ccccc4o3)c(-c3ccc(O)cc3)n2)cc1` [8m, N'-((3-(4-Hydroxyphenyl)-1-p-tolyl-1H-pyrazol-4-yl)methylene)benzofuran-2-carbohydrazide]: the melting point fell in the range of 293 to 295 °C. For the same molecule, half-maximal inhibition in data set [1] (IC50) required 127 ± 1 µM.
In the same order, the values of `O=C(N/N=C/c1cn(-c2ccccc2)nc1-c1ccc(O)cc1)c1cc2ccccc2o1` [8d, (E)-N'-((3-(4-hydroxyphenyl)-1-phenyl-1H-pyrazol-4-yl)methylene)benzofuran-2-carbohydrazide] are 280 to 281 °C and 133.6 ± 1.2 µM.
The corresponding values for `O=C(NN=Cc1cn(-c2ccccc2)nc1-c1ccc(F)cc1)c1cc2ccccc2o1` [8h, N'-((3-(4-Fluorophenyl)-1-phenyl-1H-pyrazol-4-yl)methylene)benzofuran-2-carbohydrazide] are 253 to 254 °C and 164 ± 1.8 µM.
Turning to `O=C(NN=Cc1cn(-c2ccccc2)nc1-c1ccccc1)c1cc2ccccc2o1` [8a, N'-((1,3-Diphenyl-1H-pyrazol-4-yl)methylene)benzofuran-2-carbohydrazide], the melting point lay in the range of 210 to 211 °C. This molecule displayed an IC50 in data set [1] of 141.2 ± 1.4 µM.
In the case of `O=C(NN=Cc1cn(-c2ccccc2)nc1-c1ccc([N+](=O)[O-])cc1)c1cc2ccccc2o1` [8e, N'-((3-(4-Nitrophenyl)-1-phenyl-1H-pyrazol-4-yl)methylene)benzofuran-2-carbohydrazide], the concentration for half-maximal inhibition (IC50) in data set [2] is > 150 µM; in data set [1] (mean ± SD, at least three experiments, substrate p-nitrophenyl-α-glucopyranoside, read-out: IC50 α-glucosidase inhibitory activity), 40.6 ± 0.2 µM. Further, in the data set with 3T3 cell line, the “cytotoxicity against normal cell line” value was “noncytotoxic”. Further, in data set [1], the “fold more potent than the standard acarbose” value is on record as “approximately 18 fold”. Also, the type of inhibition entry on α-glucosidase (Lineweaver–Burk plot) is “competitive”. Moreover, on α-glucosidase (secondary re-plot of Lineweaver–Burk plots, 0, 10, 25, 40 µM inhibitor, substrate 2–10 mM, read-out: inhibition constant Ki), the Ki was ~38 µM and 38 µM.
In the case of `Cc1ccc(-c2nn(-c3ccc(C)cc3)cc2C=NNC(=O)c2cc3ccccc3o2)cc1` [8k, N'-((1,3-Dip-tolyl-1H-pyrazol-4-yl)methylene)benzofuran-2-carbohydrazide], the melting point was 259 to 261 °C. The IC50 in data set [1] turned out to be 115.6 ± 0.9 µM.
In turn, `Cc1ccc(-n2cc(C=NNC(=O)c3cc4ccccc4o3)c(-c3ccc(Br)cc3)n2)cc1` [8n, N'-((3-(4-Bromophenyl)-1-p-tolyl-1H-pyrazol-4-yl)methylene)benzofuran-2-carbohydrazide] gave a melting point of 258 to 259 °C. Further, the concentration for half-maximal inhibition (IC50) in data set [2] was > 150 µM. In the data set with 3T3 cell line, the “cytotoxicity against normal cell line” value is “noncytotoxic”. In data set [1], inhibition was half-maximal at 95.6 ± 0.6 µM (IC50) and the “fold more potent than the standard acarbose” value is on record as “approximately eight-fold”.
Take `COc1ccc(-c2nn(-c3ccccc3)cc2C=NNC(=O)c2cc3ccccc3o2)cc1` [8c, N'-((3-(4-Methoxyphenyl)-1-phenyl-1H-pyrazol-4-yl)methylene)benzofuran-2-carbohydrazide]: the melting point is 207 to 209 °C. For the same molecule, 100.3 ± 0.7 µM corresponded to half-maximal inhibition in data set [1] (IC50).
In turn, `COc1ccc(-c2nn(-c3ccc(C)cc3)cc2C=NNC(=O)c2cc3ccccc3o2)cc1` [8l, N'-((3-(4-Methoxyphenyl)-1-p-tolyl-1H-pyrazol-4-yl)methylene)benzofuran-2-carbohydrazide] gave a melting point of 230 to 232 °C. In data set [2], the IC50 was > 150 µM. In addition, in the data set with 3T3 cell line, the “cytotoxicity against normal cell line” value is on record as “noncytotoxic”. Also, in data set [1], inhibition was half-maximal at 54.7 ± 0.3 µM (IC50) and the “fold more potent than the standard acarbose” value is reported as > 13 fold. Further, the “increase in activity compared with compound 8c” value in data set [1] (effect of methyl group on R2) is “two-fold”.
With `Cc1ccc(-c2nn(-c3ccccc3)cc2C=NNC(=O)c2cc3ccccc3o2)cc1` [8b, N'-((1-Phenyl-3-p-tolyl-1H-pyrazol-4-yl)methylene)benzofuran-2-carbohydrazide], the melting point was in the range of 234 to 235 °C. For the same molecule, the IC50 in data set [1] was 108.3 ± 0.8 µM.
`Cc1ccc(-n2cc(C=NNC(=O)c3cc4ccccc4o3)c(-c3ccccc3)n2)cc1` [8j, N'-((3-Phenyl-1-p-tolyl-1H-pyrazol-4-yl)methylene)benzofuran-2-carbohydrazide] came in with a melting point of 255 to 256 °C. For the same molecule, half-maximal inhibition in data set [1] (IC50) required 157 ± 1.6 µM.
`O=C(NN=Cc1cn(-c2ccccc2)nc1-c1ccc(C(F)(F)F)cc1)c1cc2ccccc2o1` [8i, N'-((1-Phenyl-3-(4-(trifluoromethyl)phenyl)-1H-pyrazol-4-yl)methylene)benzofuran-2-carbohydrazide] yielded a melting point of 217 to 218 °C. Moreover, in data set [1], the midpoint of inhibition, the IC50, lay at 101.7 ± 0.7 µM.
